Laboratory results taken from the supplement of paper PMC10307832.

Columns and labels:
Experiment in all cases: relative viability (nuclei count vs DMSO), 5 days (fraction); higher = more cells survive
[1] = compound: C1=CC(=CC=C1C2=CC(=C(S2)NC(=O)N)C(=O)N)F [TPCA-1] + CCNC(=O)c1noc(-c2cc(C(C)C)c(O)cc2O)c1-c1ccc(CN2CCOCC2)cc1 [Luminespib] (partner 0.01 µM)
Outline: (§1)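 Nuclei were stained with Hoechst during a one-step fixation (final 0.05% Triton X-100, 1% formaldehyde, 1 ug/ml Hoechst) carried out 5 days after dosing, then counted on 4× images. The cells, lung cancer lines in 1536-well plates, had been dosed by pin tool the day after seeding with one drug alone or a fixed anchor-drug dose plus five library-drug doses (not always all listed) in √10 steps. Relative viability is the nuclei count in treated wells divided by that in vehicle wells, and each value is the median of duplicate plates.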

[2] = compound: C1=CC(=CC=C1C2=CC(=C(S2)NC(=O)N)C(=O)N)F [TPCA-1] + CS(=O)(=O)N1CCN(Cc2cc3nc(-c4cccc5[nH]ncc45)nc(N4CCOCC4)c3s2)CC1 [Pictilisib] (partner 1 µM)
Outline: as §1

[3] = compound: C1/C(=C\C2=CC=CS2)/C(=O)/C(=C/C3=CC=CS3)/C1 + CC1(C)CCC(c2ccc(Cl)cc2)=C(CN2CCN(c3ccc(C(=O)NS(=O)(=O)c4ccc(N[C@H](CCN5CCOCC5)CSc5ccccc5)c(S(=O)(=O)C(F)(F)F)c4)cc3)CC2)C1 [Navitoclax] (partner 0.5 µM)
Outline: as §1

Cell Line | relative viability ([1]; first compound 0.04 µM) | relative viability ([1]; first compound 0.1265 µM) | relative viability ([1]; first compound 0.4 µM) | relative viability ([1]; first compound 1.265 µM) | relative viability ([1]; first compound 4 µM) | relative viability ([2]; first compound 0.04 µM) | relative viability ([2]; first compound 0.1265 µM) | relative viability ([2]; first compound 0.4 µM) | relative viability ([2]; first compound 1.265 µM) | relative viability ([2]; first compound 4 µM) | relative viability ([3]; first compound 0.2 µM) | relative viability ([3]; first compound 0.6325 µM) | relative viability ([3]; first compound 2 µM) | relative viability ([3]; first compound 6.325 µM) | relative viability ([3]; first compound 20 µM)
LK-2 | 0.216 | 0.188 | 0.216 | 0.175 | 0.167 | 0.721 | 0.349 | 0.615 | 0.662 | 0.442 | 0.824 | 0.956 | 0.702 | 0.862 | 0.89
LOU-NH91 | 0.346 | 0.254 | 0.397 | 0.255 | 0.318 | 0.527 | 0.438 | 0.563 | 0.507 | 0.469 | 0.726 | 0.744 | 0.724 | 0.581 | 0.723
LU99A | 0.34 | 0.302 | 0.241 | 0.349 | 0.231 | 0.299 | 0.29 | 0.317 | 0.303 | 0.25 | 0.734 | 0.796 | 0.814 | 0.788 | 0.793
LXF-289 | 0.787 | 0.649 | 0.748 | 0.703 | 0.596 | 0.836 | 0.698 | 0.797 | 0.735 | 0.499 | 0.939 | 0.996 | 0.929 | 0.862 | 0.908
NCI-H23 | 0.199 | 0.208 | 0.219 | 0.196 | 0.193 | 0.529 | 0.342 | 0.519 | 0.5 | 0.184 | 0.902 | 0.804 | 0.944 | 0.602 | 0.729
NCI-H322M | 1 | 0.812 | 0.984 | 1.01 | 0.366 | 0.587 | 0.494 | 0.529 | 0.532 | 0.464 | 1.32 | 1.2 | 1.4 | 0.587 | 0.976
NCI-H441 | 0.448 | 0.414 | 0.386 | 0.297 | 0.19 | 0.565 | 0.377 | 0.4 | 0.216 | 0.195 | 0.779 | 0.769 | 0.523 | 0.527 | 0.572
NCI-H460 | 0.0339 | 0.0348 | 0.0261 | 0.0343 | 0.0263 | 0.421 | 0.246 | 0.332 | 0.339 | 0.216 | 1.26 | 1.34 | 1.12 | – | 1.14
NCI-H520 | 0.197 | 0.215 | 0.203 | 0.246 | 0.213 | 0.351 | 0.242 | 0.307 | 0.319 | 0.319 | 0.98 | 1.06 | 1.15 | 0.856 | 1
NCI-H596 | 0.988 | 1.08 | 0.897 | 1.11 | 1.08 | 0.402 | 0.353 | 0.196 | 0.388 | 0.387 | 0.987 | 0.975 | 0.919 | 0.956 | 0.933
NCI-H647 | 0.149 | 0.192 | 0.157 | 0.102 | 0.134 | 0.494 | 0.283 | 0.42 | 0.236 | 0.217 | 1.15 | 1.15 | 1.1 | 1.01 | 1.17
